Assay results: the supplement of paper PMC10307832

Key:
Test in all cases: relative viability (nuclei count vs DMSO), 5 days (fraction); higher = more cells survive
[1] = compound: COc1cc2nccc(Oc3ccc(NC(=O)C4(C(=O)Nc5ccc(F)cc5)CC4)cc3)c2cc1OC [Cabozantinib] + CC(=O)c1c(C)c2cnc(Nc3ccc(N4CCNCC4)cn3)nc2n(C2CCCC2)c1=O [Palbociclib] (partner 0.5 µM)
In short: (§1)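 Values are medians from duplicate plates. Each reflects relative viability, defined as the nuclei count of treated wells over that of vehicle wells. Lung cancer cell lines in 1536-well plates were pin-tool dosed one day after seeding with one drug alone or with a fixed anchor-drug dose plus five library-drug doses (not always all listed) in √10 steps, then fixed, stained and imaged at 4× after 5 days.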

Kobe2602 + Navitoclax = compound: C1=CC(=CC=C1NC(=S)NNC2=C(C=C(C=C2[N+](=O)[O-])C(F)(F)F)[N+](=O)[O-])F [Kobe2602] + CC1(C)CCC(c2ccc(Cl)cc2)=C(CN2CCN(c3ccc(C(=O)NS(=O)(=O)c4ccc(N[C@H](CCN5CCOCC5)CSc5ccccc5)c(S(=O)(=O)C(F)(F)F)c4)cc3)CC2)C1 [Navitoclax] (partner 0.5 µM)
In short: as §1

Zosuquidar + Pemetrexed = compound: O[C@@H](COc1cccc2ncccc12)CN1CCN([C@@H]2c3ccccc3[C@@H]3[C@H](c4ccccc42)C3(F)F)CC1 [Zosuquidar] + Nc1nc2[nH]cc(CCc3ccc(C(=O)N[C@@H](CCC(=O)O)C(=O)O)cc3)c2c(=O)[nH]1 [Pemetrexed] (partner 0.2 µM)
In short: as §1

[2] = compound: COc1cc2nccc(Oc3ccc(NC(=O)C4(C(=O)Nc5ccc(F)cc5)CC4)cc3)c2cc1OC [Cabozantinib] + CC1(C)CCC(c2ccc(Cl)cc2)=C(CN2CCN(c3ccc(C(=O)NS(=O)(=O)c4ccc(N[C@H](CCN5CCOCC5)CSc5ccccc5)c(S(=O)(=O)C(F)(F)F)c4)cc3)CC2)C1 [Navitoclax] (partner 0.5 µM)
In short: as §1

Cell Line	relative viability ([1]; first compound 0.02 µM)	relative viability ([1]; first compound 0.06325 µM)	relative viability ([1]; first compound 0.2 µM)	relative viability ([1]; first compound 0.6325 µM)	relative viability ([1]; first compound 2 µM)	relative viability (Kobe2602 + Navitoclax; first compound 0.2 µM)	relative viability (Kobe2602 + Navitoclax; first compound 0.6325 µM)	relative viability (Kobe2602 + Navitoclax; first compound 2 µM)	relative viability (Kobe2602 + Navitoclax; first compound 6.325 µM)	relative viability (Kobe2602 + Navitoclax; first compound 20 µM)	relative viability (Zosuquidar + Pemetrexed; first compound 0.01 µM)	relative viability (Zosuquidar + Pemetrexed; first compound 0.03162 µM)	relative viability (Zosuquidar + Pemetrexed; first compound 0.1 µM)	relative viability (Zosuquidar + Pemetrexed; first compound 0.3162 µM)	relative viability (Zosuquidar + Pemetrexed; first compound 1 µM)	relative viability ([2]; first compound 0.06325 µM)	relative viability ([2]; first compound 0.2 µM)	relative viability ([2]; first compound 0.6325 µM)	relative viability ([2]; first compound 2 µM)	relative viability ([2]; first compound 0.02 µM)
NCI-H1944	0.357	0.315	0.317	0.299	0.349	1.02	1.04	1.09	1.08	1.13	0.583	0.585	0.604	0.678	0.665	1.08	0.972	0.969	0.921	
NCI-H1437	0.312	0.339	0.296	0.344	0.302	1.04	1.07	1.11	1.11	0.901	0.331	0.311	0.303	0.296	0.337	1.13	1.12	1.13	1.02	1.2
RERF-LC-KJ	1.03	1.2	0.652	0.568	1.07	0.804	0.993	0.856	0.971	0.858	0.456	0.459	0.478	0.518	0.467	1.08	0.948	0.866	0.921	1.06
NCI-H1395	0.631	0.79	0.626	0.642	0.54	1.07	1.09	1.12	1.11	1.33	0.718	0.983		1	0.811	1.1	1.41	1.12	1.12	1.13
NCI-H1651	0.512	0.561	0.52	0.495	0.495	1.11	1.08	1.18	1.03	1.02	0.55	0.653	0.425	0.533	0.644	1.03	1.15	0.974	0.928	1.19
NCI-H1734	0.4	0.339	0.381	0.389	0.325	0.899	0.924	0.842	0.837	0.926	0.366	0.382	0.395	0.422	0.447	0.832	0.85	0.818	0.667	0.8
NCI-H520	0.266	0.245	0.268	0.228	0.203	0.99	1.08	1.03	1.07	0.988	0.742	0.723	0.788	0.85	0.899	1.16	1.21	1.02	0.998	0.902
PC-14	0.511	0.703		0.516	0.417	0.978	1.04	0.982	1.03	0.971	0.119	0.147	0.134	0.128	0.142	1.09		0.931	0.997	1.06
NCI-H2347	0.474	0.466	0.49	0.478	0.401	0.697	0.82	0.753	0.789	0.807	0.425	0.34	0.413	0.432	0.483	0.994	0.803	0.612	0.375	0.83
NCI-H1793	0.338	0.313		0.277	0.252	0.528	0.445	0.415	0.413	0.459	0.898			1.01	0.832	0.514	0.267	0.235	0.29	0.477
